Laboratory results reported in patent US20250276120A1, “METHOD FOR PREVENTING COAGULATION IN PATIENTS WITH IMPLANTED CARDIAC DEVICES” (Cadrenal Therapeutics, Inc., priority 2024, published 2025).
Like-named read-outs stand apart in the source and are kept apart here.

Assays:
[1] = human, in vivo
[2] = system: cytochrome P450 system; conditions: cited from earlier work
[3] = pharmacokinetic study with fluconazole (CYP2C9 inhibitor) co-administration in healthy volunteers; conditions: fluconazole co-administered
[4] = time-within-therapeutic range (TTR), supporting clinical data; type: in vivo, human; conditions: stable anticoagulation with tecarfarin
From the text: Tecarfarin is not metabolized via the cytochrome P450 system, but rather via an alternate pathway and enzyme (h-CE2) that is abundant throughout the body and essentially insaturable. Tecarfarin has a reliable and stable PK profile and PD response (anticoagulation), a well-understood mechanism of action (similar to other VKAs), with supporting clinical data.

[5] = Phase 2/3 randomized, double-blind, active-control study tecarfarin versus warfarin, TTR as primary efficacy endpoint; type: in vivo, human
[6] = target: T1, human carboxylesterase 2 (hCE-2) (Homo sapiens, UniProt O00748); conditions: cited from earlier work
T1 sequence (O00748 27-559): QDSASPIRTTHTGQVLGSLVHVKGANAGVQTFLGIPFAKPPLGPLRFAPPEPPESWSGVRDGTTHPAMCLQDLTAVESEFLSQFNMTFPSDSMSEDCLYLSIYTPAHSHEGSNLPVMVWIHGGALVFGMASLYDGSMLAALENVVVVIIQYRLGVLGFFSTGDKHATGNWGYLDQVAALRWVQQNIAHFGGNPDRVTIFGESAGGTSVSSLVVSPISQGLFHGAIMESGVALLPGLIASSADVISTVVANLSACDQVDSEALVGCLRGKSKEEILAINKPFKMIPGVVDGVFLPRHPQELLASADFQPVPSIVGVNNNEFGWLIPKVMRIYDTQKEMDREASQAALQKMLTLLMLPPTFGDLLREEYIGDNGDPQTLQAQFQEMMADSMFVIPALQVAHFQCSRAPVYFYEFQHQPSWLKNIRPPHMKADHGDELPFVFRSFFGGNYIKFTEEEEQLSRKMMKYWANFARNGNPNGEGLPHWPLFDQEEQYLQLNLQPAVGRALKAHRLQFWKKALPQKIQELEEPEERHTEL

[7] = aspirin added to warfarin, patients with atrial fibrillation already on warfarin; cited from earlier work

CC(=O)CC(c1ccccc1)c1c(O)c2ccccc2oc1=O (racemic) [warfarin]
effect of CKD on the effect of CYP2C9 genetic variation on exposure [1]: significantly increased | mean plasma concentrations in subjects with CKD versus healthy subjects [1]: significantly higher | metabolism by the cytochrome P450 system [2]: metabolized by multiple different isoenzymes of the cytochrome P450 system (primarily CYP2C9, CYP1A2 and CYP3A4)

CC(=O)C[C@@H](c1ccccc1)c1c(O)c2ccccc2oc1=O [(S)-warfarin, reference compound]
mean plasma concentrations in subjects with CKD versus healthy subjects (CKD versus healthy subjects): significantly higher | effect of CKD on the effect of CYP2C9 genetic variation on exposure (CKD, CYP2C9 genotype): significantly increased | effect of fluconazole co-administration on drug exposure [3]: significantly prolonged

CC(=O)C[C@H](c1ccccc1)c1c(O)c2ccccc2oc1=O [R-warfarin]
effect of fluconazole co-administration on drug exposure [3]: significantly prolonged

CC(OC(=O)c1ccc(Cc2c(O)c3ccccc3oc2=O)cc1)(C(F)(F)F)C(F)(F)F [Tecarfarin, 1,1,1,3,3,3-hexafluoro-2-methyl-2-propanyl 4-[(4-hydroxy-2-oxo-2H-chromen-3-yl)methyl] benzoate]
time-within-therapeutic range (TTR) [4]: > 72% | TTR on tecarfarin compared to warfarin ([5]; CYP2C9 genotypic variants on CYP2C9 inhibitors, small number of subjects): higher | percent of time-within-therapeutic-range (TTR), tecarfarin versus warfarin ([5]; general population requiring chronic oral anticoagulation, blinded treatment): did not differ significantly | TTR, tecarfarin versus warfarin ([5]; subjects with CYP2C9 wild type genotype): significant improvement | metabolism by the cytochrome P450 system [2]: does not proceed via the cytochrome P450 system | metabolic pathway (carboxylesterase) [6]: hydrolysis via by human carboxylesterase 2 (hCE-2) | change of elimination half-life (t1/2) in CKD (CKD versus healthy subjects): decreased | mean plasma concentrations in subjects with CKD versus healthy subjects (CKD versus healthy subjects): not significantly higher | effect of fluconazole co-administration on PK [3]: unaffected

CC(=O)Oc1ccccc1C(=O)O [aspirin]
incremental rate of major bleeding [7]: 1.6 % per year
